Test results reported in patent US20230135524A1, “ARYL HYDANTOIN HETEROCYCLES AND METHODS OF USE” (The United States of America,as represented by the …, priority 2020, published 2023).
Like-named read-outs stand apart in the source and are kept apart here. Each block holds one compound with its values, some of them ahead of it.

Experiments:
Format in all cases: cell-based
LAPC4 = test: IncuCyte % confluence cell growth inhibition, LAPC4; conditions: Homo sapiens
Protocol: (§1) Images were then analyzed to discern the % confluence of cells in each well. IC50 values were calculated from dose response curves of the % cell growth inhibition relative to DMSO control at the same time point per each cell line.

LNCaP ARin vivo = test: IncuCyte % confluence cell growth inhibition, LNCaP ARin vivo; conditions: Homo sapiens, read-out: IC50 values (μM), LNCaP ARin vivo
Protocol: as §1

LNCaP = test: IncuCyte % confluence cell growth inhibition, LNCaP; conditions: Homo sapiens, read-out: IC50 values (μM), LNCaP
Protocol: as §1

PC3 = test: IncuCyte % confluence cell growth inhibition, PC3; conditions: Homo sapiens
Protocol: as §1

LNCAP AR = test: IncuCyte % confluence cell growth inhibition, LNCAP AR; conditions: read-out: IC50 values (μM), LNCAP AR
Protocol: as §1

DU145 = test: IncuCyte % confluence cell growth inhibition, DU145; conditions: Homo sapiens
Protocol: as §1

22Rv1 = test: IncuCyte % confluence cell growth inhibition, 22Rv1; conditions: Homo sapiens
Protocol: as §1

AR = target: T1, AR (Homo sapiens, UniProt P10275); test: AR transcriptional output, ARE-luciferase assay in HEK 293T cells; conditions: for activity at 10 µM: HEK-293T, read-out: AR antagonist activity (% RLU); for antagonist or inverse agonist activity on AR transcriptional activity (in words): 10 μM, HEK 293T, FIG. 6A
T1 construct: host or cells: HEK 293T
T1 sequence (P10275 1-920): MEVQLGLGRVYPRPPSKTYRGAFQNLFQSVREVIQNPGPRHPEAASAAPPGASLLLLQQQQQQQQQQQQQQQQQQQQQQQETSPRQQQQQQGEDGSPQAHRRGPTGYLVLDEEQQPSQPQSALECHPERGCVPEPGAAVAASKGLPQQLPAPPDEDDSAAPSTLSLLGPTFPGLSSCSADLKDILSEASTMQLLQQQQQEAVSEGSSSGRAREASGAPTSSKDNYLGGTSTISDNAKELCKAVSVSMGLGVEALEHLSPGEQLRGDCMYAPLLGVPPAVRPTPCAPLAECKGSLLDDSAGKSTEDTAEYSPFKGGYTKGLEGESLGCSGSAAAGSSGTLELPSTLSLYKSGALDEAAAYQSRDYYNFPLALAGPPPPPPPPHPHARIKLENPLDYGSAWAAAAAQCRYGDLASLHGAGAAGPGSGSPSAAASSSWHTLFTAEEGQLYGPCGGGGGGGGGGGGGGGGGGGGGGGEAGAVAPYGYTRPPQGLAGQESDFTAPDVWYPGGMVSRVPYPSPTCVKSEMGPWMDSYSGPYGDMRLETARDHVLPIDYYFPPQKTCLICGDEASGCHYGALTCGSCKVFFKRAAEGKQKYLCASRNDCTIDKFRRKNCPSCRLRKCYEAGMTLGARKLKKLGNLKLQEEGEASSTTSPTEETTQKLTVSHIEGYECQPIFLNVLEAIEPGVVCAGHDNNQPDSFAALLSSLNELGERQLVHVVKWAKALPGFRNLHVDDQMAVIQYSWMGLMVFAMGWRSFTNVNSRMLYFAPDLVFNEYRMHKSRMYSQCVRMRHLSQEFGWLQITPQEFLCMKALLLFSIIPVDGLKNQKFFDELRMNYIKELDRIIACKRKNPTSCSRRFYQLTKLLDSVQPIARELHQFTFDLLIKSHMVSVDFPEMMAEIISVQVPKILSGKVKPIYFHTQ
Protocol: 100% is set to the activity with 200 μM testosterone, and 0% is set to the basal level (no ligand).
Cells were maintained in steroid free media, and stimulated with 200 μM testosterone, followed immediately by administration of exemplary compounds (Table 1, below). RLU is relative luciferase units, relative to DMSO control with 200 μM testosterone alone. Data represent an average of 3 independent experiments performed in triplicate wells per compounds at 10 μM.
Cells were maintained in steroid-free media, and stimulated with 200 μM testosterone, followed immediately by administration of a test compound. […] Compounds were dosed at 10 μM in FIGS. 6A and 6B.
Cells were maintained in steroid-free media, and stimulated with 200 μM testosterone, followed immediately by administration of a test compound.

LNCaP ARF876L = test: IncuCyte % confluence cell growth inhibition, LNCaP ARF876L; conditions: Homo sapiens, AR-positive, AR mutation F876L, % cell growth inhibition relative to DMSO
Protocol: as §1

[1] = LAPC4, AR-positive, AR w.t., % cell growth inhibition relative to DMSO, read-out: IC50 values (μM), LAPC4
[2] = AR-positive, AR w.t., % cell growth inhibition relative to DMSO
[3] = AR-positive, AR mutation T877A, % cell growth inhibition relative to DMSO
[4] = PC-3, AR-negative, % cell growth inhibition relative to DMSO, read-out: IC50 values (μM), PC3
[5] = DU-145, AR-negative, % cell growth inhibition relative to DMSO, read-out: IC50 values (μM), DU145
[6] = 22Rv1, AR-positive, AR mutation H874Y, % cell growth inhibition relative to DMSO, read-out: IC50 values (μM), 22Rv1
[7] = LAPC4, read-out: IC50 values (μM), LAPC4
[8] = PC-3, read-out: IC50 values (μM), PC3
[9] = DU-145, read-out: IC50 values (μM), DU145
[10] = 22Rv1, read-out: IC50 values (μM), 22Rv1

IC50 (LNCaP ARin vivo; [2]): 270 µM
IC50 (LNCaP; [3]): 34.5 µM
IC50 (PC3; [4]): 300 µM
IC50 (LNCAP AR; [2]): 98.9 µM
IC50 (DU145; [5]): 61.8 µM
IC50 (22Rv1; [6]): 32.5 µM
Compound: CNC(=O)c1ccc(N2C(=S)N(c3cnc(C#N)c(C(F)(F)F)c3)C(=O)C23CCC3)cc1F [ARN509, reference compound]
IC50 (LAPC4; [1]): 86 µM

Compound: CC1(C)C(=O)N(c2ccc(C#N)c(C(F)(F)F)c2)C(=S)N1Cc1c[nH]nn1 [Compound 18a]
activity at 10 µM (AR): 412%

Compound: CC1(C)C(=O)N(c2ccc(C#N)c(C(F)(F)F)c2)C(=S)N1Cc1ccc(-c2c[nH]nn2)c(F)c1 [Compound 19c, 4-(3-(3-Fluoro-4-(1H-1,2,3-triazol-4-yl)benzyl)-4,4-dimethyl-5-oxo-2-thioxoimidazolidin-1-yl)-2-(trifluoromethyl)benzonitrile]
IC50 (LAPC4; [7]): 17.9 µM
IC50 (LNCaP ARF876L): 33.9 µM
IC50 (LNCaP ARin vivo): 34 µM
IC50 (LNCaP): 36.2 µM
IC50 (PC3; [8]): 59.9 µM
IC50 (LNCAP AR): 28 µM
IC50 (DU145; [9]): 114 µM
IC50 (22Rv1; [10]): 25.3 µM

IC50 (LNCaP; [3]): 76.9 µM
IC50 (PC3; [4]): 122 µM
IC50 (LNCAP AR; [2]): 25.8 µM
IC50 (DU145; [5]): 61.2 µM
IC50 (22Rv1; [6]): 26.8 µM
Compound: CC(=O)N1CCN(CCOc2ccc(C3CCN(C4=Nn5c(nnc5C(F)(F)F)CC4)CC3)cc2)CC1 [AZD3514, reference compound]
IC50 (LAPC4; [1]): 30.5 µM

Compound: CC1(C)C(=O)N(c2ccc(C#N)c(C(F)(F)F)c2)C(=O)N1Cc1ccc(-c2c[nH]nn2)cc1F [Compound 19a, 4-(3-(2-Fluoro-4-(1H-1,2,3-triazol-4-yl)benzyl)-4,4-dimethyl-2,5-dioxoimidazolidin-1-yl)-2-(trifluoromethyl)benzonitrile]
IC50 (LAPC4; [7]): 30.7 µM
IC50 (LNCaP ARF876L): 41.4 µM
IC50 (LNCaP ARin vivo): 35.8 µM
IC50 (LNCaP): 39 µM
IC50 (PC3; [8]): 63.4 µM
IC50 (LNCAP AR): 29.4 µM
IC50 (DU145; [9]): 46.1 µM
IC50 (22Rv1; [10]): 36.7 µM

Compound: CCCCn1cc(-c2ccc(CN3C(=S)N(c4ccc(C#N)c(C(F)(F)F)c4)C(=O)C3(C)C)cc2)nn1 [Compound 15e, 4-(3-(4-(1-butyl-1H-1,2,3-triazol-4-yl)benzyl)-4,4-dimethyl-5-oxo-2-thioxoimidazolidin-1-yl)-2-(trifluoromethyl)benzonitrile]
activity at 10 µM (AR): -3%

Compound: C#Cc1ccc(CN2C(=O)N(c3ccc(C#N)c(C(F)(F)F)c3)C(=O)C2(C)C)cc1 [Compound 6, 4-[3-[(4-ethynylphenyl)methyl]-4,4-dimethyl-2,5-dioxo-1-imidazolidinyl]-2-(trifluoromethyl)-benzonitrile]
antagonist or inverse agonist activity on AR transcriptional activity (in words) (AR): relatively weak antagonists
activity at 10 µM (AR): 138%

Compound: CCn1cc(-c2ccc(CN3C(=S)N(c4ccc(C#N)c(C(F)(F)F)c4)C(=O)C3(C)C)cc2)nn1 [Compound 15c, 4-(3-(4-(1-ethyl-1H-1,2,3-triazol-4-yl)benzyl)-4,4-dimethyl-5-oxo-2-thioxoimidazolidin-1-yl)-2-(trifluoromethyl)benzonitrile]
activity at 10 µM (AR): 3%

Compound: CC1(C)C(=O)N(c2ccc(C#N)c(C(F)(F)F)c2)C(=O)N1Cc1ccc(-n2cc(CO)nn2)cc1 [Compound 20b, 4-(3-(4-(4-(hydroxymethyl)-1H-1,2,3-triazol-1-yl)benzyl)-4,4-dimethyl-2,5-dioxoimidazolidin-1-yl) 2-(trifluoromethyl)benzonitrile]
activity at 10 µM (AR): 73%

Compound: CC1(C)C(=O)N(c2ccc(C#N)c(C(F)(F)F)c2)C(=O)N1Cc1ccc(-c2c[nH]nn2)c(F)c1 [Compound 19b, 4-(3-(3-Fluoro-4-(1H-1,2,3-triazol-4-yl)benzyl)-4,4-dimethyl-2,5-dioxoimidazolidin-1-yl)-2-(trifluoromethyl)benzonitrile]
IC50 (LAPC4; [7]): 33.1 µM
IC50 (LNCaP ARF876L): 49.4 µM
IC50 (LNCaP ARin vivo): 60.1 µM
IC50 (LNCaP): 43.1 µM
IC50 (PC3; [8]): 60.9 µM
IC50 (LNCAP AR): 35.1 µM
IC50 (DU145; [9]): 65 µM
IC50 (22Rv1; [10]): 40.6 µM

IC50 (PC3; [4]): 239 µM
IC50 (LNCAP AR; [2]): 80.5 µM
IC50 (22Rv1; [6]): 53.4 µM
Compound: CC(O)(CS(=O)(=O)c1ccc(F)cc1)C(=O)Nc1ccc(C#N)c(C(F)(F)F)c1 (centres unmarked) [Bicalutamide, bicalutamide, reference compound]
IC50 (LAPC4; [1]): 67 µM

Compound: CCCn1cc(-c2ccc(CN3C(=S)N(c4ccc(C#N)c(C(F)(F)F)c4)C(=O)C3(C)C)cc2)nn1 [Compound 15d, 4-(4,4-dimethyl-5-oxo-3-(4-(1-propyl-1H-1,2,3-triazol-4-yl)benzyl)-2-thioxoimidazolidin-1-yl)-2-(trifluoromethyl)benzonitrile]
activity at 10 µM (AR): 4%

Compound: C#Cc1ccc(CN2C(=S)N(c3ccc(C#N)c(C(F)(F)F)c3)C(=O)C2(C)C)cc1 [Compound 10, 4-(3-(4-ethynylbenzyl)-4,4-dimethyl-5-oxo-2-thioxoimidazolidin-1-yl)-2-(trifluoromethyl)benzonitrile]
antagonist or inverse agonist activity on AR transcriptional activity (in words) (AR): relatively weak antagonists
activity at 10 µM (AR): 95%

Compound: Cn1cc(-c2ccc(CN3C(=S)N(c4ccc(C#N)c(C(F)(F)F)c4)C(=O)C3(C)C)cc2)nn1 [Compound 15b, 4-(4,4-dimethyl-3-(4-(1-methyl-1H-1,2,3-triazol-4-yl)benzyl)-5-oxo-2-thioxoimidazolidin-1-yl)-2-(trifluoromethyl)benzonitrile]
activity at 10 µM (AR): -41%

Compound: Cn1cc(-c2ccc(CN3C(=O)N(c4ccc(C#N)c(C(F)(F)F)c4)C(=O)C3(C)C)cc2)nn1 [Compound 14b, 4-(4,4-dimethyl-3-(4-(1-methyl-1H-1,2,3-triazol-4-yl)benzyl)-2,5-dioxoimidazolidin-1-yl)-2-(trifluoromethyl)benzonitrile]
activity at 10 µM (AR): -3%

Compound: C#Cc1ccc(N2C(=S)N(c3ccc(C#N)c(C(F)(F)F)c3)C(=O)C2(C)C)cc1 [Compound 13, 4-(3-(4-ethynylphenyl)-4,4-dimethyl-5-oxo-2-thioxoimidazolidin-1-yl)-2-(trifluoromethyl)benzonitrile]
antagonist or inverse agonist activity on AR transcriptional activity (in words) (AR): relatively weak antagonists
activity at 10 µM (AR): 59%

Compound: CC1(C)C(=O)N(c2ccc(C#N)c(C(F)(F)F)c2)C(=O)N1Cc1ccc(-n2ccnn2)cc1 [Compound 20a, 4-(3-(4-(1H-1,2,3-triazol-1-yl)benzyl)-4,4-dimethyl-2,5-dioxoimidazolidin-1-yl)-2-(trifluoromethyl)benzonitrile]
activity at 10 µM (AR): 57%

Compound: CC1(C)C(=O)N(c2ccc(C#N)c(C(F)(F)F)c2)C(=O)N1Cc1ccc(-n2cc(CCO)nn2)cc1 [Compound 20c, 4-(3-(4-(4-(2-hydroxyethyl)-1H-1,2,3-triazol-1-yl)benzyl)-4,4-dimethyl-2,5-dioxoimidazolidin-1-yl)-2-(trifluoromethyl)benzonitrile]
activity at 10 µM (AR): -1%
